Measured values taken from patent US6830761B1, “Composition comprising micro-encapsulated iron” (Ped-Med Ltd., priority 1998, dated 2004).

Test system: anemic rats
Assay: hemoglobin-repletion test in anemic rats (relative bioavailability of iron)
Format: in vivo, Sprague-Dawley rats
Details: high iron diet, 20 mg/kg of diet, after 14 days of feeding
Description: Male weanling Sprague-Dawley rats housed individually in stainless steel cages were fed a low-iron diet and de-ionized distilled water ad lib for 24 days. The low-iron diet contained no more than about 3 mg of iron per kg of diet. Following the 24 day depletion period, approximately 200 μl of blood was drawn from the tail vein of each rat for hemoglobin analysis. Anemic rats having hemoglobin values between 30 and 60 g/L were used in the study. The rats were housed individually in cages in a randomized block design.

Question: Which mean hemoglobin response does the source give for ferrous sulfate here?
Answer: 31 g/L
